Experimental data: US20060134063A1, “Agents for proliferating pancreatic beta-cells of the islets of langerhans, agents for suppressing apoptosis of said cells, and screening of candidate compounds for these agents” (priority 2000, published 2006)
Blank lines part the entries; values can stand above or below the molecule they belong to.

How the values were obtained:
Reg gene = experiment: RT-PCR of Reg gene expression in RINm5F cells; type: cell-based, rat; settings: 24 h with stimulants
Description: The Reg gene expression was analyzed by RT-PCR. The cells were harvested after 24 h of culturing in a medium supplemented with stimulants, and total RNA was prepared using cesium trifluoroacetate as described in Takasawa, S. et al. (1993) J. Biol. Chem., 268, 26052-26054. RT-PCR was performed using primers corresponding to nucleotides 23 to 43 and 572 to 593 of rat Reg mRNA (Terazono, K. et al. (1988) J. Biol. Chem., 263, 2111-2114).

[1] = molecular target: T1, poly(ADP-ribose) synthetase/polymerase (PARP) (Rattus norvegicus, UniProt P27008); experiment: GMSA binding reaction of RINm5F nuclear extracts, effects of ADP-ribosylation; type: biochemical; settings: for intensity of the IL-6/dexamethasone/nicotinamide-dependent GMSA band: added to the binding reaction prior to the 32P-probe
T1 construct: Nuclear extracts from RINm5F cells were prepared as described; endogenous in cells; host or cells: RINm5F (rat insulinoma) nuclear extract
T1 sequence (P27008 whole entry): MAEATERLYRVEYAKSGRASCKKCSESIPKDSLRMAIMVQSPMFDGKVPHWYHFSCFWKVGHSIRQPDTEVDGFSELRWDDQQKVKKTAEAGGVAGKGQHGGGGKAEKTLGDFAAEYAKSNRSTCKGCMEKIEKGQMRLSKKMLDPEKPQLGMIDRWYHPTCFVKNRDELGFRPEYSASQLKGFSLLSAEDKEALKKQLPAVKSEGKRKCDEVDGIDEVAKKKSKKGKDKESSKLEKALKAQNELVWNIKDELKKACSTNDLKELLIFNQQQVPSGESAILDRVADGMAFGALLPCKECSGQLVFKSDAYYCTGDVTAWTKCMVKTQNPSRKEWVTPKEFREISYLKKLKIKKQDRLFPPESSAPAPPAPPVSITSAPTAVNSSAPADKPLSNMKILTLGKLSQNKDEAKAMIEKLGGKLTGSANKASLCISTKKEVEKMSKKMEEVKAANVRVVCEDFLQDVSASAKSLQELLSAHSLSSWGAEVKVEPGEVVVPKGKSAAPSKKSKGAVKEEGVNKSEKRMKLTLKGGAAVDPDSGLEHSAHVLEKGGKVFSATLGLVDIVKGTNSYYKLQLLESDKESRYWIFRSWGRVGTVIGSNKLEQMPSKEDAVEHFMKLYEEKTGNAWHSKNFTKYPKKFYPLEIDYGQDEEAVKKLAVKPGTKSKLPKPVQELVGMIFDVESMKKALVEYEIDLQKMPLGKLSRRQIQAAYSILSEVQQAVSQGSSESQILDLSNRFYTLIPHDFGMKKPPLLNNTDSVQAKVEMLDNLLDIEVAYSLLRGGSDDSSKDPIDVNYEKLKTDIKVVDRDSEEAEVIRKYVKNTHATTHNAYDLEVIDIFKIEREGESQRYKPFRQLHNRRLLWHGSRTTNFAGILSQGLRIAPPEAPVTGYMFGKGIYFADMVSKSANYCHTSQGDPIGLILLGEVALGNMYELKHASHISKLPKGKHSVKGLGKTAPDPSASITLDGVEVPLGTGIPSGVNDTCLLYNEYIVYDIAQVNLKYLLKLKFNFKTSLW
Description: The nuclear extract (10 μg) was incubated in a final volume of 20 μl of buffer containing 20 mM Tris-HCl (pH 7.9), 2 mM MgCl2, 50 mM NaCl, 2 mM EDTA, 10% glycerol, 0.1% Nonidet P-40, 1 mM DTT, 50 μg/ml bovine serum albumin and 1 μg of poly(dI-dC). After incubation for 10 min at room temperature, 2.5 pmol of double-stranded DNA, previously labeled by an exchange reaction using MEGALABEL (Takara Shuzo) and [γ-^32P]ATP (Amersham Pharmacia Biotech), were added and incubated for 30 min at room temperature, then the binding reactions were resolved on pre-run 6% acrylamide gel. […] After electrophoresis, DNA/proteins were electrophoretically transferred to a PolyScreen™ PVDF membrane (NEN).
Poly(ADP-ribosyl)ation of nuclear proteins was performed in the same condition as GMSA in the presence of 62 nM [adenylate-^32P]NAD^+ (2×10^6 cpm, NEN). The ADP-ribosylated proteins were precipitated by the addition of 9 volume of acetone, separated by SDS-PAGE (12.5%) and autoradiographed.

90% depancreatized rats = settings: cited from earlier work
[2] = tested on: 5'-flanking region of the rat Reg gene; experiment: Reg promoter/luciferase reporter assay in RINm5F cells; type: cell-based; settings: 2,303-bp Reg 5'-flanking fragment; 24 h stimulation
Description: A 2,303-bp fragment containing the 5′-flanking region of Reg gene was fused to the luciferase gene and transfected into RINm5F β-cells.
Specifically, luciferase reporter gene constructs were generated as described in Miyashita, H. et al. (1994) Biochim. Biophys. Acta, 1219, 241-243. RINm5F cells were seeded at 1×10^5 cells/well in 24-well dish. After 48 h, 3.0 μg of test plasmid and 0.2 μg of pCMV-SPORT β-gal (Life Technologies, Inc.) were transfected by lipofection (Felgner, J. H. et al. (1994) J. Biol. Chem., 269, 2550-2561) using DMRIE-C™ (Life Technologies, Inc.). After 24 h, the medium of each dish was replaced with fresh medium containing stimulants and incubated further for 24 h. Cells were harvested in 1 ml of ice-cold phosphate-buffered saline (PBS), washed twice with PBS, and extracts were prepared in extraction buffer (0.1 M potassium phosphate, pH 6.8, 1 mM DTT). The protein concentration was determined using a Coomassie reagent kit (Pierce) and bovine serum albumin as a standard. Luciferase activity was determined by a chemiluminescence substrate using a Pica Gene™ Luminescence Kit (Toyo Ink Mfg. Co, Ltd., Tokyo, Japan). β-galactosidase activity was determined using Aurora™ GAL-XE (ICN).

[3] = tested on: RINm5F cell lines, #1, #6, and #24, which stably express the Reg protein receptor; experiment: TUNEL apoptosis assay in RINm5F cell lines #1, #6, #24 expressing Reg protein receptor; type: cell-based, rat; settings: HGF 0, 2.5, 25 ng/ml; 24 h; every cell line
Description: Rat insulinoma RINm5F cell lines, #1, #6, and #24, which stably express Reg protein receptor (Kobayashi, S. et al. (2000) J. Biol. Chem. 275, 10723-10726) were similarly cultured as in Example 4 and 1,000 nM Reg protein and HGF at varied concentrations, 0, 2.5, and 25 ng/ml were added thereto. Twenty-four hours after the addition of Reg protein/HGF, apoptosis was measured by TUNEL method using an Apoptosis Screening kit (Wako Pure Chemical Industries Ltd., Osaka, Japan) as described in Kobayashi, S. et al. (2000) J. Biol. Chem. 275, 10723-10726.

Reg protein = experiment: Immunoblot of secreted Reg protein in RINm5F culture medium; type: cell-based, rat; settings: 24 h incubation with stimulants
Description: The Reg protein levels in the RINm5F cultured media were examined after stimulation. After 24-hour incubation of the cells in a medium supplemented with stimulants, the medium was collected, and subjected to immunoblot analyses as described in Watanabe, T. et al. (1990) J. Biol. Chem., 265, 7432-7439. The medium of RINm5F cells was subjected to SDS polyacrylamide gel electrophoresis (SDS-PAGE) and electrotransferred to a PVDF membrane as described in Takasawa, S. et al. (1993) J. Biol. Chem., 268, 26052-26054. Western blotting was carried out using an anti-rat Reg monoclonal antibody (Terazono, K. et al. (1990) Diabetologia, 33, 250-252).

[4] = tested on: RINm5F cell lines, #1, #6, and #24, which stably express the Reg protein receptor; settings: 1,000 nM Reg protein added to culture media; cited from earlier work
[5] = tested on: non-obese diabetic (NOD) mice; settings: cited from earlier work

Molecule: NC(=O)c1cccc(N)c1 [3-aminobenzamide]
Reg gene expression (Reg mRNA) (Reg gene): no effect on Reg expression | IC50 ([1]; 1 mM β-NAD+ in the GMSA binding reaction, read-out: concentrations of half maximal inhibition (quenching of the effect of β-NAD+ on the GMSA band)): 30 µM | development of diabetes after 90% pancreatectomy (90% depancreatized rats; PARP inhibitor-treated rats): preventing the development of diabetes | luciferase activity (result in words) [2]: ineffective

intensity of the IL-6/dexamethasone/nicotinamide-dependent GMSA band [1]: did not attenuate the band intensity
Molecule: Nc1ncnc2c1ncn2[C@@H]1O[C@H](COP(=O)(O)OP(=O)(O)OC[C@H]2OC(O)[C@H](O)[C@@H]2O)[C@@H](O)[C@H]1O (some centres unmarked) [ADP-ribose]

intensity of the IL-6/dexamethasone/nicotinamide-dependent GMSA band [1]: did not attenuate the band intensity
Molecule: N=c1c2ncn3c2ncn1[C@@H]1O[C@H](COP(=O)(O)OP(=O)(O)OC[C@H]2O[C@@H]3[C@H](O)[C@@H]2O)[C@@H](O)[C@H]1O [cyclic ADP-ribose]

intensity of the IL-6/dexamethasone/nicotinamide-dependent GMSA band [1]: not
Molecule: NC(=O)c1ccc[n+]([C@H]2O[C@H](COP(=O)(O)OP(=O)(O)OC[C@H]3O[C@@H](n4cnc5c(N)ncnc54)[C@H](O)[C@@H]3O)[C@@H](O)[C@H]2O)c1 [α-NAD^+]

intensity of the IL-6/dexamethasone/nicotinamide-dependent GMSA band [1]: attenuated
Molecule: NC(=O)c1ccc[n+]([C@@H]2O[C@H](COP(=O)([O-])OP(=O)(O)OC[C@H]3O[C@@H](n4cnc5c(N)ncnc54)[C@H](O)[C@@H]3O)[C@@H](O)[C@H]2O)c1 [β-NAD^+]

Molecule: HGF: hepatocyte growth factor (HGF; Sigma)
apoptosis induced by 1,000 nM Reg protein (TUNEL) [3]: concentration-dependently inhibited apoptosis

Molecule: IL-1β: IL-1β (Sigma), stimulant
Reg gene expression (Reg mRNA) (Reg gene): no effect on Reg expression

Molecule: IL-6: interleukin (IL)-6, a cytokine whose receptor is gp130 (Genzyme)
Reg protein secretion into the medium (Reg protein): did not induce Reg protein secretion | Reg gene expression (Reg mRNA) (Reg gene): no effect on Reg expression | luciferase activity (result in words) [2]: ineffective

Molecule: TNFα
Reg gene expression (Reg mRNA) (Reg gene): no effect on Reg expression

B1: Reg protein: product of Reg (regenerating gene), stimulates β-cell proliferation (protein)
chain: QEAEEDLPSARITCPEGSNAYSSYCYYFMEDHLSWAEADLFCQNMNSGYLVSVLSQAEGNFLASLIKESGTTAANVWIGLHDPKNNRRWHWSSGSLFLYKSWDTGYPNNSNRGYCVSVTSNSGYKKWRDNSCDAQLSFVCKFKA
proliferation and apoptosis of the cells [4]: induced not only proliferation but also apoptosis

B2: Human REG protein: human REG protein, 166-amino acid protein with 68% identity to rat Reg protein (protein, UniProt P05451 1-166, looked up)
chain: MAQTSSYFMLISCLMFLSQSQGQEAQTELPQARISCPEGTNAYRSYCYYFNEDRETWVDADLYCQNMNSGNLVSVLTQAEGAFVASLIKESGTDDFNVWIGLHDPKKNRRWHWSSGSLVSYKSWGIGAPSSVNPGYCVSLTSSTGFQKWKDVPCEDKFSFVCKFKN
modifications: full-length
notes: human REG protein, 166-amino acid protein with 68% identity to rat Reg protein
β-cell mass [5]: induced an expansion of the β-cell mass

B3: Recombinant rat Reg protein: recombinant rat Reg protein, 165-amino acid protein with a 21-amino acid signal peptide (protein, UniProt P10758 1-165, looked up)
chain: MTRNKYFILLSCLMVLSPSQGQEAEEDLPSARITCPEGSNAYSSYCYYFMEDHLSWAEADLFCQNMNSGYLVSVLSQAEGNFLASLIKESGTTAANVWIGLHDPKNNRRWHWSSGSLFLYKSWDTGYPNNSNRGYCVSVTSNSGYKKWRDNSCDAQLSFVCKFKA
modifications: full-length
notes: recombinant rat Reg protein, 165-amino acid protein with a 21-amino acid signal peptide
β-cell replication and β-cell mass in the residual pancreas (90% depancreatized rats; 90% depancreatized rats): stimulated β-cell replication and increased the β-cell mass
